Experimental data as given in ChEMBL document CHEMBL4138123, “Design, synthesis and biological evaluation of novel pyrazolochalcones as potential modulators of PI3K/Akt/mTOR pathway and inducers of apoptosis in breast cancer cells” (Eur J Med Chem, 2017).

How the values were obtained:
Type in all cases: functional
NCI-H226 = experiment: Cytotoxicity against human NCI-H226 cells assessed as cell growth at 100 uM after 48 hrs by sulforhodamine B assay relative to control; conditions: NCI-H226, 48 h, read-out: Activity
SK-MEL-28 [1] = experiment: Cytotoxicity against human SK-MEL-28 cells assessed as cell growth at 100 uM after 48 hrs by sulforhodamine B assay relative to control; conditions: SK-MEL-28, 48 h, read-out: Activity
RXF 393 = experiment: Cytotoxicity against human RXF393 cells assessed as cell growth at 0.1 uM after 48 hrs by sulforhodamine B assay relative to control; conditions: RXF 393, 48 h, read-out: Activity
MDA-MB-468 [2] = experiment: Cytotoxicity against human MDA-MB-468 cells assessed as cell growth at 1 uM after 48 hrs by sulforhodamine B assay relative to control; conditions: MDA-MB-468, 48 h, read-out: Activity
OVCAR-4 = experiment: Cytotoxicity against human OVCAR4 cells assessed as cell growth at 0.01 uM after 48 hrs by sulforhodamine B assay relative to control; conditions: OVCAR-4, 48 h, read-out: Activity
COLO 205 = experiment: Cytotoxicity against human COLO205 cells assessed as cell growth at 0.1 uM after 48 hrs by sulforhodamine B assay relative to control; conditions: COLO 205, 48 h, read-out: Activity
U-251 = experiment: Cytotoxicity against human U251 cells assessed as cell growth at 100 uM after 48 hrs by sulforhodamine B assay relative to control; conditions: U-251, 48 h, read-out: Activity
SK-MEL-28 [3] = experiment: Cytotoxicity against human SK-MEL-28 cells assessed as cell growth at 0.1 uM after 48 hrs by sulforhodamine B assay relative to control; conditions: SK-MEL-28, 48 h, read-out: Activity
OVCAR-8 = experiment: Cytotoxicity against human OVCAR8 cells assessed as growth inhibition after 48 hrs by sulforhodamine B assay; conditions: OVCAR-8, 48 h
TK-10 = experiment: Cytotoxicity against human TK10 cells assessed as growth inhibition after 48 hrs by sulforhodamine B assay; conditions: TK-10, 48 h
SK-MEL-28 [4] = experiment: Cytotoxicity against human SK-MEL-28 cells assessed as growth inhibition after 48 hrs by sulforhodamine B assay; conditions: SK-MEL-28, 48 h
SF-539 = experiment: Cytotoxicity against human SF539 cells assessed as cell growth at 10 uM after 48 hrs by sulforhodamine B assay relative to control; conditions: SF-539, 48 h, read-out: Activity
ACHN [5] = experiment: Cytotoxicity against human ACHN cells assessed as cell growth at 0.01 uM after 48 hrs by sulforhodamine B assay relative to control; conditions: read-out: Activity
SR [6] = experiment: Cytotoxicity against human SR cells assessed as cell growth at 100 uM after 48 hrs by sulforhodamine B assay relative to control; conditions: read-out: Activity
A549 = experiment: Cytotoxicity against human A549/ATCC cells assessed as cell growth at 10 uM after 48 hrs by sulforhodamine B assay relative to control; conditions: A549, 48 h, read-out: Activity
ACHN [7] = experiment: Cytotoxicity against human ACHN cells assessed as growth inhibition after 48 hrs by sulforhodamine B assay
NCI-H322M = experiment: Cytotoxicity against human NCI-H322M cells assessed as cell growth at 100 uM after 48 hrs by sulforhodamine B assay relative to control; conditions: read-out: Activity
HCT-116 = experiment: Cytotoxicity against human HCT116 cells assessed as cell growth at 10 uM after 48 hrs by sulforhodamine B assay relative to control; conditions: HCT-116, 48 h, read-out: Activity
KM12 = experiment: Cytotoxicity against human KM12 cells assessed as cell growth at 1 uM after 48 hrs by sulforhodamine B assay relative to control; conditions: KM12, 48 h, read-out: Activity
NCI-H460 = experiment: Cytotoxicity against human NCI-H460 cells assessed as cell growth at 100 uM after 48 hrs by sulforhodamine B assay relative to control; conditions: NCI-H460, 48 h, read-out: Activity
SR [8] = experiment: Cytotoxicity against human SR cells assessed as cell growth at 1 uM after 48 hrs by sulforhodamine B assay relative to control; conditions: read-out: Activity
RPMI-8226 = experiment: Cytotoxicity against human RPMI8226 cells assessed as cell growth at 100 uM after 48 hrs by sulforhodamine B assay relative to control; conditions: RPMI-8226, 48 h, read-out: Activity
NCI/ADR-RES = experiment: Cytotoxicity against human NCI/ADR-RES cells assessed as cell growth at 1 uM after 48 hrs by sulforhodamine B assay relative to control; conditions: read-out: Activity
HL-60(TB) = experiment: Cytotoxicity against human HL-60(TB) cells assessed as cell growth at 100 uM after 48 hrs by sulforhodamine B assay relative to control; conditions: HL-60, 48 h, read-out: Activity
Malme-3M [9] = experiment: Cytotoxicity against human MALME-3M cells assessed as cell growth at 0.01 uM after 48 hrs by sulforhodamine B assay relative to control; conditions: read-out: Activity
SK-MEL-28 [10] = experiment: Cytotoxicity against human SK-MEL-28 cells assessed as cell growth at 0.01 uM after 48 hrs by sulforhodamine B assay relative to control; conditions: SK-MEL-28, 48 h, read-out: Activity
MDA-MB-468 [11] = experiment: Cytotoxicity against human MDA-MB-468 cells assessed as growth inhibition after 48 hrs by sulforhodamine B assay; conditions: MDA-MB-468, 48 h
SW-620 = experiment: Cytotoxicity against human SW620 cells assessed as cell growth at 100 uM after 48 hrs by sulforhodamine B assay relative to control; conditions: SW-620, 48 h, read-out: Activity
Malme-3M [12] = experiment: Cytotoxicity against human MALME-3M cells assessed as cell growth at 100 uM after 48 hrs by sulforhodamine B assay relative to control; conditions: read-out: Activity
SN12C = experiment: Cytotoxicity against human SN12C cells assessed as cell growth at 100 uM after 48 hrs by sulforhodamine B assay relative to control; conditions: read-out: Activity
OVCAR-5 = experiment: Cytotoxicity against human OVCAR5 cells assessed as cell growth at 100 uM after 48 hrs by sulforhodamine B assay relative to control; conditions: OVCAR-5, 48 h, read-out: Activity
BT-549 = experiment: Cytotoxicity against human BT549 cells assessed as cell growth at 10 uM after 48 hrs by sulforhodamine B assay relative to control; conditions: BT-549, 48 h, read-out: Activity
OVCAR-3 = experiment: Cytotoxicity against human OVCAR3 cells assessed as cell growth at 0.01 uM after 48 hrs by sulforhodamine B assay relative to control; conditions: OVCAR-3, 48 h, read-out: Activity
ACHN [13] = experiment: Cytotoxicity against human ACHN cells assessed as cell growth at 100 uM after 48 hrs by sulforhodamine B assay relative to control; conditions: read-out: Activity
MDA-MB-468 [14] = experiment: Cytotoxicity against human MDA-MB-468 cells assessed as cell growth at 0.01 uM after 48 hrs by sulforhodamine B assay relative to control; conditions: MDA-MB-468, 48 h, read-out: Activity
MOLT-4 = experiment: Cytotoxicity against human MOLT4 cells assessed as cell growth at 100 uM after 48 hrs by sulforhodamine B assay relative to control; conditions: MOLT-4, 48 h, read-out: Activity

Compound: COc1ccc(-c2cc(/C=C/C(=O)c3cc(OC)c(OC)c(OC)c3)[nH]n2)cc1OC
- growth at 100 µM (NCI-H226): -43%
- growth at 100 µM (SK-MEL-28 [1]): -82%
- growth at 0.1 µM (RXF 393): 102%
- growth at 1 µM (MDA-MB-468 [2]): 66%
- growth at 0.01 µM (OVCAR-4): 94%
- growth at 0.1 µM (COLO 205): 89%
- growth at 100 µM (U-251): -94%
- growth at 0.1 µM (SK-MEL-28 [3]): 91%
- GI50 (OVCAR-8): 2.55 µM
- LC50 (OVCAR-8): 42.1 µM
- TGI (OVCAR-8): 11.7 µM
- GI50 (TK-10): 3.27 µM
- LC50 (TK-10): 36.9 µM
- TGI (TK-10): 11.8 µM
- GI50 (SK-MEL-28 [4]): 1.91 µM
- LC50 (SK-MEL-28 [4]): 10.6 µM
- TGI (SK-MEL-28 [4]): 4.41 µM
- growth at 10 µM (SF-539): -85%
- growth at 0.01 µM (ACHN [5]): 95%
- growth at 100 µM (SR [6]): -14%
- growth at 10 µM (A549): -2%
- GI50 (ACHN [7]): 1.45 µM
- LC50 (ACHN [7]): 5.5 µM
- TGI (ACHN [7]): 2.82 µM
- growth at 100 µM (NCI-H322M): -91%
- growth at 10 µM (HCT-116): -81%
- growth at 1 µM (KM12): 45%
- growth at 100 µM (NCI-H460): -60%
- growth at 1 µM (SR [8]): 5%
- growth at 100 µM (RPMI-8226): -31%
- growth at 1 µM (NCI/ADR-RES): 81%
- growth at 100 µM (HL-60(TB)): -8%
- growth at 0.01 µM (Malme-3M [9]): 98%
- growth at 0.01 µM (SK-MEL-28 [10]): 95%
- GI50 (MDA-MB-468 [11]): 1.33 µM
- LC50 (MDA-MB-468 [11]): 8.03 µM
- TGI (MDA-MB-468 [11]): 3.27 µM
- growth at 100 µM (SW-620): -43%
- growth at 100 µM (Malme-3M [12]): -62%
- growth at 100 µM (SN12C): -67%
- growth at 100 µM (OVCAR-5): -70%
- growth at 10 µM (BT-549): -80%
- growth at 0.01 µM (OVCAR-3): 99%
- growth at 100 µM (ACHN [13]): -84%
- growth at 0.01 µM (MDA-MB-468 [14]): 98%
- growth at 100 µM (MOLT-4): -15%

Compound: COc1ccc(C(=O)/C=C/c2cc(-c3ccc4c(c3)OCO4)n[nH]2)cc1OC
- growth at 100 µM (NCI-H226): -20%
- growth at 100 µM (SK-MEL-28 [1]): -89%
- growth at 0.1 µM (RXF 393): 97%
- growth at 1 µM (MDA-MB-468 [2]): 85%
- growth at 0.01 µM (OVCAR-4): 96%
- growth at 0.1 µM (COLO 205): 103%
- growth at 100 µM (U-251): -91%
- growth at 0.1 µM (SK-MEL-28 [3]): 104%
- LC50 (OVCAR-8): 40.2 µM
- TGI (OVCAR-8): 5.82 µM
- GI50 (TK-10): 2.88 µM
- LC50 (TK-10): 70.4 µM
- TGI (TK-10): 8.97 µM
- LC50 (SK-MEL-28 [4]): 48.6 µM
- TGI (SK-MEL-28 [4]): 19.3 µM
- growth at 10 µM (SF-539): -47%
- growth at 0.01 µM (ACHN [5]): 101%
- growth at 100 µM (SR [6]): -35%
- growth at 10 µM (A549): 3%
- LC50 (ACHN [7]): > 100 µM
- TGI (ACHN [7]): 56.5 µM
- growth at 100 µM (NCI-H322M): -90%
- growth at 10 µM (HCT-116): -9%
- growth at 1 µM (KM12): 94%
- growth at 100 µM (NCI-H460): -81%
- growth at 1 µM (SR [8]): 57%
- growth at 100 µM (RPMI-8226): -45%
- growth at 100 µM (HL-60(TB)): -38%
- growth at 0.01 µM (Malme-3M [9]): 93%
- growth at 0.01 µM (SK-MEL-28 [10]): 99%
- GI50 (MDA-MB-468 [11]): 1.86 µM
- LC50 (MDA-MB-468 [11]): 13.5 µM
- TGI (MDA-MB-468 [11]): 4.52 µM
- growth at 100 µM (SW-620): -78%
- growth at 100 µM (Malme-3M [12]): -74%
- growth at 100 µM (SN12C): -73%
- growth at 100 µM (OVCAR-5): -30%
- growth at 10 µM (BT-549): -57%
- growth at 0.01 µM (OVCAR-3): 103%
- growth at 100 µM (ACHN [13]): -4%
- growth at 0.01 µM (MDA-MB-468 [14]): 92%
- growth at 100 µM (MOLT-4): -20%
